Laboratory results as given in patent EP4806898A1, “HETEROARYL DERIVATIVE COMPOUND AND USE THEREOF” (Voronoi Inc., priority 2023, dated 2025).

Key:
recombinant USP1 protein = molecular target: T1, recombinant USP1 protein (Homo sapiens, UniProt O94782, DEL125-138/DEL229-408/DEL608-737); assay: Binding affinity to recombinant USP1 protein by differential scanning fluorimetry; conditions: compound 100 µM; 0.03 mg/mL USP1 (Δ1-66, Δ125-138, Δ229-408, Δ608-737); Tm with compound minus Tm with DMSO; read-out: ΔTm (°C)
T1 sequence (O94782 with tags, fused parts or gaps DEL125-138/DEL229-408/DEL608-737): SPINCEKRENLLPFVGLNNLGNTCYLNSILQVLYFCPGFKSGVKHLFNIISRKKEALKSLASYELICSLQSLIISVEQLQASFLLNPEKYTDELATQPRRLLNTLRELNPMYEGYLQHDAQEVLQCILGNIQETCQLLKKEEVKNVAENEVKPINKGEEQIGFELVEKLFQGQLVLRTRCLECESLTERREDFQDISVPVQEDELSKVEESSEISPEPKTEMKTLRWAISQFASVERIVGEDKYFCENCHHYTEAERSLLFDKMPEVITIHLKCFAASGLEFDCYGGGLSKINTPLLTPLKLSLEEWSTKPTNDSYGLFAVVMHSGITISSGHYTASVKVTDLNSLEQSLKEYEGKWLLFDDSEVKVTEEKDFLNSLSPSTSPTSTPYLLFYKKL
In short: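 USP1 (Δ1-66, Δ125-138, Δ229-408, Δ608-737) at 0.03 mg/mL with dye in 50 mM Tris-HCl pH 8.0, 150 mM NaCl, 2% glycerol, 1 mM DTT; compounds at 100 µM final. Tm read on real-time PCR instrument; ΔTm = Tm with compound minus Tm with DMSO.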

UWB1.289 cells = assay: Cell proliferation inhibitory activity in BRCA1/2-mutant or HRD-positive cells (Cell Titer-Glo); assay type: cell-based; conditions: UWB1289; UWB1.289 cells, 144 hours after compound treatment, Cell Titer-Glo, 1.5 nM to 10 µM; read-out: GI50 UWB1.289 BRCA1 mut
In short: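 UWB1.289 cells (1,000/well) in 50% MEBM/50% RPMI1640 exposed to […], final 1.5 nM to 10 µM, for 144 h at 37 °C. Viable cells measured by CellTiter-Glo luminescence; GI50 calculated.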

| ΔTm at 100 µM (recombinant USP1 protein) [°C] | Compound | GI50 (UWB1.289 cells) [nM] |
| --- | --- | --- |
| > 5 | CN[C@H]1CCN(C(=O)c2cc3cnc(-c4c(OC)ncnc4C4CC4)nc3n2Cc2ccc(-c3nc(C(F)(F)F)cn3C(C)C)cc2)C1 [Example 97, (S)-(2-(4-cyclopropyl-6-methoxypyrimidin-5-yl)-7-(4-(1-isopropyl-4-(trifluoromethyl)-1H-imidazol-2-yl)benzyl)-7H-pyrrolo[2,3-d]pyrimidin-6-yl) (3-(methylamino)pyrrolidin-1-yl)methanone] | 100 to 500 |
| > 5 | COc1ncnc(C2CC2)c1-c1ncc2cc(C(=O)N3CC(N)C3)n(Cc3ccc(-c4nc(C(F)(F)F)cn4C(C)C)cc3)c2n1 [Example 99, (3-aminoazetidin-1-yl)(2-(4-cyclopropyl-6-methoxypyrimidin-5-yl)-7-(4-(1-isopropyl-4-(trifluoromethyl)-1H-imidazol-2-yl)benzyl)-7H-pyrrolo[2,3-d]pyrimidin-6-yl)methanone] | < 100 |
| > 5 | COc1ncnc(C2CC2)c1-c1ncc2cc(C(=O)NCCN)n(Cc3ccc(-c4nc(C(F)(F)F)cn4C(C)C)cc3)c2n1 [Example 100, N-(2-aminoethyl)-2-(4-cyclopropyl-6-methoxypyrimidin-5-yl)-7-(4-(1-isopropyl-4-(trifluoromethyl)-1H-imidazol-2-yl)benzyl)-7H-pyrrolo[2,3-d]pyrimidine-6-carboxamide] | 100 to 500 |
| > 5 | COc1ncnc(C2CC2)c1-c1ncc2cc(C(=O)N3CC(F)C3)n(Cc3ccc(-c4nc(C(F)(F)F)cn4C(C)C)cc3)c2n1 [Example 101, (2-(4-cyclopropyl-6-methoxypyrimid in-5-yl)-7-(4-(1-isopropyl-4-(trifluoromethyl)-1H-imidazol-2-yl)benzyl)-7H-pyrrolo[2,3-d]pyrimidin-6-yl) (3-fluoroazetidin-1-yl)methanone] | 100 to 500 |
| > 5 | COc1ncnc(C2CC2)c1-c1ncc2cc(C(=O)N3CC[C@@H](O)C3)n(Cc3ccc(-c4nc(C(F)(F)F)cn4C(C)C)cc3)c2n1 [Example 105, (R) - (2-(4-cyclopropyl-6-methoxypyrimid in-5-yl)-7-(4-(1-isopropyl-4-(trifluoromethyl)-1H-imidazol-2-yl)benzyl)-7H-pyrrolo[2,3-d]pyrimidin-6-yl) (3-hydroxypyrrolidin-1-yl)methanone] | 100 to 500 |
| > 5 | COc1ncnc(C2CC2)c1-c1ncc2cc(C(=O)NC[C@@H]3CCCN3C)n(Cc3ccc(-c4nc(C(F)(F)F)cn4C(C)C)cc3)c2n1 [Example 108, (S)-2-(4-cyclopropyl-6-methoxypyrimidin-5-yl)-7-(4-(1-isopropyl-4-(trifluoromethyl)-1H-imidazol-2-yl)benzyl)-N-((1-methylpyrrolidin-2-yl)methyl)-7H-pyrrolo[2,3-d]pyrimidine-6-carboxamide] | < 100 |
| > 5 | CN[C@@H]1CCN(C(=O)c2cc3cnc(-c4c(OC)ncnc4C4CC4)nc3n2Cc2ccc(-c3nc(C(F)(F)F)cn3C(C)C)cc2)C1 [Example 109, (R) - (2-(4-cyclopropyl-6-methoxypyrimid in-5-yl)-7-(4-(1-isopropyl-4-(trifluoromethyl)-1H-imidazol-2-yl)benzyl)-7H-pyrrolo[2,3-d]pyrimidin-6-yl) (3-(methylamino)pyrrolidin-1-yl)methanone] | < 100 |
| > 5 | COc1ncnc(C2CC2)c1-c1ncc2cc(C(=O)NC3CN(C)C3)n(Cc3ccc(-c4nc(C(F)(F)F)cn4C(C)C)cc3)c2n1 [Example 110, 2-(4-cyclopropyl-6-methoxypyrimidin-5-yl)-7-(4-(1-isopropyl-4-(trifluoromethyl)-1H-imidazol-2-yl)benzyl)-N-(1-methylazetidin-3-yl)-7H-pyrrolo[2,3-d]pyrimidine-6-carboxamide] | 100 to 500 |
| > 5 | COc1ncnc(C2CC2)c1-c1ncc2cc(C(=O)N(C)C3COC3)n(Cc3ccc(-c4nc(C(F)(F)F)cn4C(C)C)cc3)c2n1 [Example 111, 2-(4-cyclopropyl-6-methoxypyrimidin-5-yl)-7-(4-(1-isopropyl-4-(trifluoromethyl)-1H-imidazol-2-yl)benzyl)-N-methyl-N-(oxetan-3-yl)-7H-pyrrolo[2,3-d]pyrimidine-6-carboxamide] | 100 to 500 |
| > 5 | COc1ncnc(C2CC2)c1-c1ncc2cc(C(=O)N3C[C@H](O)[C@H]3C)n(Cc3ccc(-c4nc(C(F)(F)F)cn4C(C)C)cc3)c2n1 [Example 112, (2-(4-cyclopropyl-6-methoxypyrimid in-5-yl)-7-(4-(1-isopropyl-4-(trifluoromethyl)-1H-imidazol-2-yl)benzyl)-7H-pyrrolo[2,3-d]pyrimidin-6-yl)((2R,3S)-3-hydroxy-2-methylazetidin-1-yl)methanone] | < 100 |
| > 5 | COc1ncnc(C2CC2)c1-c1ncc2cc(C(=O)N[C@@H](C)CO)n(Cc3ccc(-c4nc(C(F)(F)F)cn4C(C)C)cc3)c2n1 [Example 113, (S)-2-(4-cyclopropyl-6-methoxypyrimidin-5-yl)-N-(1-hydroxypropan-2-yl)-7-(4-(1-isopropyl-4-(trifluoromethyl)-1H-imidazol-2-yl)benzyl)-7H-pyrrolo[2,3-d]pyrimidine-6-carboxamide] | < 100 |

Second part, the compound before the results:

| Compound | ΔTm at 100 µM (recombinant USP1 protein) [°C] | GI50 (UWB1.289 cells) [nM] |
| --- | --- | --- |
| COc1ncnc(C2CC2)c1-c1ncc2cc(C(=O)N3CCC4(CC3)CNCCO4)n(Cc3ccc(-c4nc(C(F)(F)F)cn4C(C)C)cc3)c2n1 [Example 94, (2-(4-cyclopropyl-6-methoxypyrimid in-5-yl)-7-(4-(1-isopropyl-4-(trifluoromethyl)-1H-imidazol-2-yl)benzyl)-7H-pyrrolo[2,3-d]pyrimidin-6-yl)(1-oxa-4,9-diazaspiro[5.5]undecan-9-yl)methanone] | > 5 | 100 to 500 |
| CNC(=O)c1cc2cnc(-c3c(OC(F)F)ncnc3C3CC3)nc2n1Cc1ccc(-c2nc(C(F)(F)F)cn2C(C)C)cc1 [Example 95, 2-(4-cyclopropyl-6-(difluoromethoxy)pyrimidin-5-yl)-7-(4-(1-isopropyl-4-(trifluoromethyl)-1H-imidazol-2-yl)benzyl)-N-methyl-7H-pyrrolo[2,3-d]pyrimidine-6-carboxamide] | > 5 | 100 to 500 |
| COc1ncnc(C2CC2)c1-c1ncc2cc(C(=O)NCCN3CCN(C)CC3)n(Cc3ccc(-c4nc(C(F)(F)F)cn4C(C)C)cc3)c2n1 [Example 102, 2-(4-cyclopropyl-6-methoxypyrimidin-5-yl)-7-(4-(1-isopropyl-4-(trifluoromethyl)-1H-imidazol-2-yl)benzyl)-N-(2-(4-methylpiperazin-1-yl)ethyl)-7H-pyrrolo[2,3-d]pyrimidine-6-carboxamide] | > 5 | < 100 |
| COc1ncnc(C2CC2)c1-c1ncc2cc(C(=O)NC3(C)COC3)n(Cc3ccc(-c4nc(C(F)(F)F)cn4C(C)C)cc3)c2n1 [Example 104, 2-(4-cyclopropyl-6-methoxypyrimidin-5-yl)-7-(4-(1-isopropyl-4-(trifluoromethyl)-1H-imidazol-2-yl)benzyl)-N-(3-methyloxetan-3-yl)-7H-pyrrolo[2,3-d]pyrimidine-6-carboxamide] | > 5 | < 100 |
| COCCNC(=O)c1cc2cnc(-c3c(OC)ncnc3C3CC3)nc2n1Cc1ccc(-c2nc(C(F)(F)F)cn2C(C)C)cc1 [Example 106, 2-(4-cyclopropyl-6-methoxypyrimidin-5-yl)-7-(4-(1-isopropyl-4-(trifluoromethyl)-1H-imidazol-2-yl)benzyl)-N-(2-methoxyethyl)-7H-pyrrolo[2,3-d]pyrimidine-6-carboxamide] | > 5 | < 100 |
| COc1ncnc(C2CC2)c1-c1ncc2cc(C(=O)NCC(C)C)n(Cc3ccc(-c4nc(C(F)(F)F)cn4C(C)C)cc3)c2n1 [Example 114, 2-(4-cyclopropyl-6-methoxypyrimidin-5-yl)-N-isobutyl-7-(4-(1-isopropyl-4-(trifluoromethyl)-1H-imidazol-2-yl)benzyl)-7H-pyrrolo[2,3-d]pyrimidine-6-carboxamide] | > 5 | < 100 |
| COc1ncnc(C2CC2)c1-c1ncc2cc(C(=O)N[C@@H]3CCC[C@H]3N(C)C)n(Cc3ccc(-c4nc(C(F)(F)F)cn4C(C)C)cc3)c2n1 [Example 115, 2-(4-cyclopropyl-6-methoxypyrimidin-5-yl)-N-((1R,2R)-2-(dimethylamino)cyclopentyl)-7-(4-(1-isopropyl-4-(trifluoromethyl)-1H-imidazol-2-yl)benzyl)-7H-pyrrolo[2,3-d]pyrimidine-6-carboxamide] | > 5 | < 100 |
